Results: patent publication US20230113609A1, “SSTR5 ANTAGONISTS” (Kallyope, Inc., priority 2019, published 2023)

What was measured:
[1] = Oral bioavailability of the compounds after oral dosing in rat; settings: in vivo, IV 1 mg/kg, PO 5 mg/kg, vehicle 5% DMSO + 30% PEG400 + 65% water
Procedure: Oral bioavailability of the compounds was determined in Sprague Dawley rats (Compound 90) or Wistar Han rats (Compound 81). The table below summarizes the results. Each compound was dosed intravenously (IV) at 1 mg/kg and orally (PO) 5 mg/kg using the respective vehicles listed below. The compounds display low (<10%) oral bioavailability (F%).

[2] = target: T1, human SSTR5 (Homo sapiens, UniProt P35346); assay: Inositol phosphate accumulation assay (IP1 HTRF, antagonist mode); format: cell-based; settings: CHO-K1 cells co-expressing human SSTR5 with Gqi5, SST28 agonist at concentration generating 90% of full activation
T1 construct: expressed in transfected cells
Outline: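 CHO-K1 cells stably co-expressing human SSTR5 and chimeric Gqi5 were pre-incubated with compound 15 minutes at 37° C, then stimulated with SST28 (30 nM as added, about EC90) for 90 minutes. IP1 read by HTRF (665/620 nm). % inhibition normalized to Max/Min controls; IC50 and maximal inhibition from 4-parameter fit.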

T1 sequence (P35346 whole entry): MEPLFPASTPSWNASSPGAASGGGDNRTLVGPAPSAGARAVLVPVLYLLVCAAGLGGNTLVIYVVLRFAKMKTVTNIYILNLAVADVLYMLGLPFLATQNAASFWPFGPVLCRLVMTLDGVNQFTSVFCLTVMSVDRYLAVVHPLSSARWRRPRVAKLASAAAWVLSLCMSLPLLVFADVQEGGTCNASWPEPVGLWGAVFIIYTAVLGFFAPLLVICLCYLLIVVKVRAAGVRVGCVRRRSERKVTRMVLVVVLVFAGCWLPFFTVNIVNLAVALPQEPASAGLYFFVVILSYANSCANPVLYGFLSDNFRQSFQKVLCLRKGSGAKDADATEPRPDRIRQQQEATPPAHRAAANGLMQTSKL

A bioavailability ([1]; Wistar Han rats) of 7% and an IC50 [2] of no more than 100 nM were found for `CCOc1cc(-c2ccc(F)cc2)c(C2CC2)cc1CN1CCC2(CC1)CN(c1ccc(S(=O)(=O)NCCOCCO)cc1)C(=O)O2` [Example 81, 4-(8-((2-cyclopropyl-5-ethoxy-4′-fluoro-[1,1-biphenyl]-4-yl)methyl)-2-oxo-1-oxa-3,8-diazaspiro[4.5]decan-3-yl)-N-(2-(2-hydroxyethoxy)ethyl)benzenesulfonamide] in this work.
A bioavailability ([1]; Sprague Dawley rats) of 2.6% and an IC50 [2] of no more than 100 nM were found for `CCOc1cc(-c2ccc(F)cn2)c(C2CC2)cc1CN1CCC2(CC1)CN([C@H]1CC[C@](C)(C(=O)NCCOCCO)CC1)C(=O)O2` [compound 90] in this work.
